Assay results as given in patent publication US9420813B2, “Sweetener” (AJINOMOTO CO., INC., priority 2007, dated 2016).
*1 amine or outer side, *2 acyl side, *3 side chain or, on linkers, in order; H or OH if unused. Where no end group is shown, it is not given here. [ ]: non-standard residue; d: D form. γGlu = O=C(O)[C@H](CCC(=O)[*:2])N[*:1]; Met(O) = CS(=O)CC[C@H](N)C(=O)O; Orn = NCCC[C@H](N)C(=O)O

Legend:
human calcium receptor = biological target: T1, human calcium receptor (Homo sapiens, UniProt P41180); assay: Calcium receptor-activating effect, Ca ion concentration-dependent Cl ionic current in Xenopus laevis oocyte expression system; assay type: cell-based; conditions: for calcium receptor-activating effect (Ca ion concentration-dependent Cl response current): amino acid added at 10 mM; for Activity (lowest concentration at which current is detected): peptide added at 1,000 to 0.1 μM, Ca ion concentration-dependent Cl response current, oocytes voltage-clamped at −70 mV
T1 construct: expressed in transfected cells; host or cells: Xenopus laevis oocytes injected with receptor cRNA; the gene was amplified by PCR from human kidney cDNA (Clontech) and cloned in pBR322
T1 sequence (P41180 20-1078): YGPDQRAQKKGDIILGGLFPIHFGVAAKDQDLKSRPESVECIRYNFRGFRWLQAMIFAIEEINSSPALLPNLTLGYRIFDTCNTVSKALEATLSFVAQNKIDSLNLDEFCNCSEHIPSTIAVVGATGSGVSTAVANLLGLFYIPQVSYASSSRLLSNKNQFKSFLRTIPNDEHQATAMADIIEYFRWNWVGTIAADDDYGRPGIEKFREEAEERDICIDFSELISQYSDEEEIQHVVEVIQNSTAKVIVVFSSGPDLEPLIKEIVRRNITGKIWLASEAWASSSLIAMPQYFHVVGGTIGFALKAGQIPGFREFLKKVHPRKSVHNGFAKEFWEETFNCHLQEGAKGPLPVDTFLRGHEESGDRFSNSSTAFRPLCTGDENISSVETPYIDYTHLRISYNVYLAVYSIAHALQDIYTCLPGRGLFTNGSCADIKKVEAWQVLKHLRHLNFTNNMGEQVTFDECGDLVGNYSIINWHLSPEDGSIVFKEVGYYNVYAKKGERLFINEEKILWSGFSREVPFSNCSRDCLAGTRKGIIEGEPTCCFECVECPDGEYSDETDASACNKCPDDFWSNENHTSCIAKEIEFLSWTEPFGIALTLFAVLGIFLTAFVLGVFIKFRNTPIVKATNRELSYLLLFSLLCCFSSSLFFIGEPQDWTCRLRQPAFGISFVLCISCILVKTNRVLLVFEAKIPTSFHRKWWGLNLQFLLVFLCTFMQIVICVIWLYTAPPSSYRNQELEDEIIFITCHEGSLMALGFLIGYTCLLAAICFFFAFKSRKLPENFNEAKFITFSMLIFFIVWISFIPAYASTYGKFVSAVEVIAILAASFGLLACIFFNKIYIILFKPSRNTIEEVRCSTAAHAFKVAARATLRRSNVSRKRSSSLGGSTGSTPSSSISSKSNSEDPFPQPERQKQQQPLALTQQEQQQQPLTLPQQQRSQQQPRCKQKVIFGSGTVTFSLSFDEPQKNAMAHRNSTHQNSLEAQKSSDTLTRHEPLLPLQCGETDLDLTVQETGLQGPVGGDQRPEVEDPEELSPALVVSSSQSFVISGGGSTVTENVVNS
Method: For evaluation of the calcium receptor-activating effect, Ca ion concentration-dependent Cl ionic current measuring method using a Xenopus laevis oocyte expression system was used. If activator is added to Xenopus laevis oocytes in which the calcium receptor is expressed, intracellular Ca ions increase. Then, the Ca ion concentration-dependent Cl channel opens, and the intracellular current value changes as an ionic current. By measuring the change in the intracellular current value, whether the calcium receptor-activating effect is present or not can be determined.
Specifically, the abdomen of Xenopus laevis was opened, and an egg batch was taken out and then treated with a 1% collagenase solution at 20° C. for 2 hours to obtain individual oocytes. Into each oocyte, 50 nl of 1 μg/μl receptor cRNA or 50 nl of sterilized water per oocyte were injected by using a micro glass capillary, and the oocytes were cultured at 18° C. for 2 to 3 days. For the culture, a solution obtained by adding 2 mM of pyruvic acid, 10 U/ml of penicillin and 10 μg/ml of streptomycin to the solution in Reference Example 2 was used. After the culture, a test solution was added to the oocytes injected with cRNA or sterilized water. Electrophysiological measurement was performed by using an amplifier Geneclamp 500 (manufactured by Axon) and recording software AxoScope 9.0 (manufactured by Axon). The oocytes were voltage-clamped at −70 mV by the double electrode voltage clamp method, and the intracellular current via the Ca ion concentration-dependent Cl ion was measured. The maximum value of the intracellular currents was defined as the response current value.
The ability of L-amino acids to activate the calcium receptor was evaluated by using the method described in Reference Example 6. That is, oocytes injected with cRNA of the calcium receptor or sterilized water were prepared, and voltage-clamped at −70 mV by the double electrode voltage clamp method. To the voltage-clamped oocytes, alanine (10 mM), arginine (10 mM), asparagine (10 mM), aspartic acid (10 mM), cysteine (10 mM), glutamine (10 mM), glutamic acid (10 mM), glycine (10 mM), histidine (10 mM), isoleucine (10 mM), leucine (10 mM), lysine (10 mM), methionine (10 mM), phenylalanine (10 mM), proline (10 mM), serine (10 mM), threonine (10 mM), tryptophan (10 mM), tyrosine (10 mM), valine (10 mM), ornithine (10 mM), taurine (10 mM) or hydroxyproline (10 mM) was added, and Ca ion concentration-dependent Cl response current was measured. […] 25, 2000, 97(9): 4814-9.
The effect of D-cysteine for activating a calcium receptor was evaluated by using the method described in Reference Example 6. That is, oocytes injected with cRNA of the calcium receptor or sterilized water were prepared, and voltage-clamped at −70 mV by the double electrode voltage clamp method. To the voltage-clamped oocytes, D-cysteine (10 mM), L-cysteine (10 mM), D-tryptophan (10 mM) or L-tryptophan (10 mM) was added, and Ca ion concentration-dependent Cl response current was measured.
The effect of peptide for activating calcium receptor was evaluated by using the method described in Reference Example 6. That is, oocytes injected with cRNA of the calcium receptor or sterilized water were prepared, and voltage-clamped at −70 mV by the double electrode voltage clamp method. To the voltage-clamped oocytes, γ-Glu-Cys-Gly (50 μM), γ-Glu-Cys(SNO)-Gly (50 μM), γ-Glu-Ala (50 μM), γ-Glu-Gly (500 μM), γ-Glu-Cys (50 μM), γ-Glu-Met (500 μM), γ-Glu-Thr (50 μM), γ-Glu-Val (50 μM), γ-Glu-Orn (500 μM), Asp-Gly (1 mM), Cys-Gly (1 mM), Cys-Met (1 mM), Glu-Cys (50 μM), Gly-Cys (500 μM) or Leu-Asp (1 mM) was added, and Ca ion concentration-dependent Cl response current was measured.
The ability of a peptide to activate calcium receptor was evaluated in the same manner as that of Reference Example 10.

[1] = Quantitative sensory evaluation test, intensity of kokumi-imparting activity; conditions: sample 0.1 g/dl; for Kokumi intensity, aftertaste / Kokumi intensity, initial and middle taste: control 0, glutathione 3 points
Method: The quantitative sensory evaluation test was performed as follows. […] When a sample is acidic when dissolved, the pH was adjusted with NaOH to pH 6.8 to 7.2 before use. Because it is known that glutathione can impart kokumi to a food, glutathione was used as a comparative control. The test was performed with n=3 based on the following sensory evaluation scores: control was given 0 points, glutathione addition was given 3 points. […] It should be noted that the term “initial and middle taste” is a collective term of the initial taste and middle taste.
The quantitative sensory evaluation test was performed as follows. […] When a sample is acidic when dissolved, the pH of the sample was adjusted with NaOH to pH 6.8 to 7.2 before use. The test was performed with n=5 based on the following sensory evaluation scores: control was given 0 point and glutathione addition was given 3 points.
The quantitative sensory evaluation test was performed as follows. […] As for a sample which is acidic when the sample is dissolved, pH of the sample was adjusted with NaOH to pH 6.8 to 7.2 before use. The test was performed with n=12 based on the following sensory evaluation scores: control: 0 point and glutathione addition: 3 points.

## N[C@H](CS)C(=O)O [D-cysteine]
Human calcium receptor
  calcium receptor-activating effect (Ca ion concentration-dependent Cl response current): definite calcium receptor-activating effect

## N[C@@H](CS)C(=O)O [cysteine, reference compound]
Human calcium receptor
  calcium receptor-activating effect (Ca ion concentration-dependent Cl response current): definite calcium receptor-activating effect

## N[C@@H](Cc1c[nH]cn1)C(=O)O [histidine, reference compound]
Human calcium receptor
  calcium receptor-activating effect (Ca ion concentration-dependent Cl response current): definite calcium receptor-activating effect

## N[C@@H](Cc1ccccc1)C(=O)O [phenylalanine, reference compound]
Human calcium receptor
  calcium receptor-activating effect (Ca ion concentration-dependent Cl response current): definite calcium receptor-activating effect

## N[C@@H](Cc1c[nH]c2ccccc12)C(=O)O [tryptophan, reference compound]
Human calcium receptor
  calcium receptor-activating effect (Ca ion concentration-dependent Cl response current): definite calcium receptor-activating effect

## N[C@@H](Cc1ccc(O)cc1)C(=O)O [tyrosine, reference compound]
Human calcium receptor
  calcium receptor-activating effect (Ca ion concentration-dependent Cl response current): definite calcium receptor-activating effect

## N[C@@H](CCC(=O)N[C@@H](CSN=O)C(=O)NCC(=O)O)C(=O)O [γ-Glu-Cys(SNO)-Gly]
Human calcium receptor; peptide added at 50 μM
  effect for activating calcium receptor (Cl response current): definite effect for activating calcium receptor

## Asp-Gly
Human calcium receptor; peptide added at 1 mM
  effect for activating calcium receptor (Cl response current): definite effect for activating calcium receptor

## Cys-Gly
Human calcium receptor; peptide added at 1 mM
  effect for activating calcium receptor (Cl response current): definite effect for activating calcium receptor

## Cys-Met
Human calcium receptor; peptide added at 1 mM
  effect for activating calcium receptor (Cl response current): definite effect for activating calcium receptor

## Glu-Cys
Human calcium receptor; peptide added at 50 μM
  effect for activating calcium receptor (Cl response current): definite effect for activating calcium receptor

## Gly-Cys
Human calcium receptor; peptide added at 500 μM
  effect for activating calcium receptor (Cl response current): definite effect for activating calcium receptor

## Leu-Asp
Human calcium receptor; peptide added at 1 mM
  effect for activating calcium receptor (Cl response current): definite effect for activating calcium receptor

## [γGlu]-Ala
Human calcium receptor; peptide added at 50 μM
  effect for activating calcium receptor (Cl response current): definite effect for activating calcium receptor
[1]; n=3
  Kokumi intensity, aftertaste: 0.2 points
  Kokumi intensity, initial and middle taste: 0.5 points

## [γGlu]-Cys
Human calcium receptor; peptide added at 50 μM
  effect for activating calcium receptor (Cl response current): definite effect for activating calcium receptor
[1]; n=5
  Kokumi intensity, aftertaste: 2.0 points
  Kokumi intensity, initial and middle taste: 2.0 points
  Taste profile: A slightly

## [γGlu]-Gly
Human calcium receptor; peptide added at 500 μM
  effect for activating calcium receptor (Cl response current): definite effect for activating calcium receptor

## [γGlu]-Gly-Gly [γ-Glu-Glγ-Gly]
Human calcium receptor
  Activity (lowest concentration at which current is detected): 30 µM

## [γGlu]-Met
Human calcium receptor; peptide added at 500 μM
  effect for activating calcium receptor (Cl response current): definite effect for activating calcium receptor
[1]; n=3
  Kokumi intensity, aftertaste: 0.4 points
  Kokumi intensity, initial and middle taste: 1.5 points

## [γGlu]-Ser-Gly
Human calcium receptor
  Activity (lowest concentration at which current is detected): 30 µM

## [γGlu]-Thr
Human calcium receptor; peptide added at 50 μM
  effect for activating calcium receptor (Cl response current): definite effect for activating calcium receptor

## [γGlu]-Val-Arg
Human calcium receptor
  Activity (lowest concentration at which current is detected): 1,000 μM

## [γGlu]-Val-Asn
Human calcium receptor
  Activity (lowest concentration at which current is detected): 30 µM

## [γGlu]-Val-Cys
Human calcium receptor
  Activity (lowest concentration at which current is detected): 10 µM

## [γGlu]-Val-Gln
Human calcium receptor
  Activity (lowest concentration at which current is detected): 10 µM

## [γGlu]-Val-Glu
Human calcium receptor
  Activity (lowest concentration at which current is detected): 1,000 μM

## [γGlu]-Val-His
Human calcium receptor
  Activity (lowest concentration at which current is detected): 100 µM

## [γGlu]-Val-Lys
Human calcium receptor
  Activity (lowest concentration at which current is detected): 1,000 μM

## [γGlu]-Val-Met
Human calcium receptor
  Activity (lowest concentration at which current is detected): 1,000 μM

## [γGlu]-Val-NH2
Human calcium receptor
  Activity (lowest concentration at which current is detected): 1,000 μM

## [γGlu]-Val-Phe
Human calcium receptor
  Activity (lowest concentration at which current is detected): 30 µM

## [γGlu]-Val-Pro
Human calcium receptor
  Activity (lowest concentration at which current is detected): 30 µM

## [γGlu]-Val-Ser
Human calcium receptor
  Activity (lowest concentration at which current is detected): 30 µM

## [γGlu]-Val-Thr
Human calcium receptor
  Activity (lowest concentration at which current is detected): 1,000 μM

## [γGlu]-Val-Val
Human calcium receptor
  Activity (lowest concentration at which current is detected): 1,000 μM

## [γGlu]-Val-[Orn]
Human calcium receptor
  Activity (lowest concentration at which current is detected): 100 µM

## [γGlu]-[Met(O)]
Human calcium receptor
  Activity (lowest concentration at which current is detected): 1,000 μM

## [γGlu]-[γGlu]-Val
Human calcium receptor
  Activity (lowest concentration at which current is detected): 1,000 μM

## γ-Glu-Cys(S-Me)-Gly
Human calcium receptor
  Activity (lowest concentration at which current is detected): 3 µM

## γ-Glu-Cys(S-allyl)-Gly
Human calcium receptor
  Activity (lowest concentration at which current is detected): 100 µM

## γ-Glu-Orn
Human calcium receptor; peptide added at 500 μM
  effect for activating calcium receptor (Cl response current): definite effect for activating calcium receptor

## γ-Glu-Tau
Human calcium receptor
  Activity (lowest concentration at which current is detected): 300 µM

## γ-Glu-Val-Asp
Human calcium receptor
  Activity (lowest concentration at which current is detected): 1,000 μM

## γ-Glu-Val-ol
Human calcium receptor
  Activity (lowest concentration at which current is detected): 1,000 μM

## γ-Glu-t-Leu
Human calcium receptor
  Activity (lowest concentration at which current is detected): 100 µM
